Source: the supplement of paper PMC10307832

What was measured:
Test in all cases: relative viability (nuclei count vs DMSO), 5 days (fraction); higher = more cells survive
QS11 + Bortezomib = compound: C1CC2=C(C1)C=C(C=C2)OC3=NC(=C4C(=N3)N(C=N4)CC5=CC=C(C=C5)C6=CC=CC=C6)N[C@@H](CC7=CC=CC=C7)CO [QS11] + CC(C)C[C@H](NC(=O)[C@H](Cc1ccccc1)NC(=O)c1cnccn1)B(O)O [Bortezomib] (partner 0.002 µM)
Procedure, shortened: (§1)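 Values are medians from duplicate plates. Each reflects relative viability, defined as the nuclei count of treated wells over that of vehicle wells. Lung cancer cell lines in 1536-well plates were pin-tool dosed one day after seeding with one drug alone or with a fixed anchor-drug dose plus five library-drug doses (not always all listed) in √10 steps, then fixed, stained and imaged at 4× after 5 days.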

[1] = compound: C[As](C)SC[C@H](NC(=O)CC[C@H](N)C(=O)O)C(=O)NCC(=O)O [Darinaparsin] + CC(=O)c1c(C)c2cnc(Nc3ccc(N4CCNCC4)cn3)nc2n(C2CCCC2)c1=O [Palbociclib] (partner 0.5 µM)
Procedure, shortened: as §1

QS11 + Vorinostat = compound: C1CC2=C(C1)C=C(C=C2)OC3=NC(=C4C(=N3)N(C=N4)CC5=CC=C(C=C5)C6=CC=CC=C6)N[C@@H](CC7=CC=CC=C7)CO [QS11] + O=C(CCCCCCC(=O)Nc1ccccc1)NO [Vorinostat] (partner 1 µM)
Procedure, shortened: as §1

AZ628 + AZD7762 = compound: CC1=C(C=C(C=C1)NC(=O)C2=CC(=CC=C2)C(C)(C)C#N)NC3=CC4=C(C=C3)N=CN(C4=O)C [AZ628] + NC(=O)Nc1cc(-c2cccc(F)c2)sc1C(=O)N[C@H]1CCCNC1 [AZD7762] (partner 0.2 µM)
Procedure, shortened: as §1

LCLC-97TM1
relative viability (QS11 + Bortezomib; first compound 0.253 µM): 0.971
relative viability (QS11 + Bortezomib; first compound 0.8 µM): 0.611
relative viability (QS11 + Bortezomib; first compound 2.53 µM): 0.537
relative viability (QS11 + Bortezomib; first compound 8 µM): 1.18
relative viability ([1]; first compound 0.08 µM): 0.317
relative viability ([1]; first compound 0.8 µM): 0.2
relative viability ([1]; first compound 2.53 µM): 0.237
relative viability ([1]; first compound 8 µM): 0.251
relative viability (QS11 + Vorinostat; first compound 0.253 µM): 0.722
relative viability (QS11 + Vorinostat; first compound 2.53 µM): 0.615
relative viability (QS11 + Vorinostat; first compound 8 µM): 0.85
relative viability (AZ628 + AZD7762; first compound 0.08 µM): 0.307
relative viability (AZ628 + AZD7762; first compound 0.253 µM): 0.331
relative viability (AZ628 + AZD7762; first compound 0.8 µM): 0.243
relative viability (AZ628 + AZD7762; first compound 2.53 µM): 0.201
relative viability (AZ628 + AZD7762; first compound 8 µM): 0.108
